Values quoted from earlier work in US20200281134A1, “GROWTH SUBSTRATE PRODUCT” (ROCKWOOL International A/S, priority 2015, published 2020).

Conditions: 3-hydroxy group

pKa: 4.04
SMILES: O=C1O[C@H]([C@@H](O)CO)C(O)=C1O [ascorbic acid, Ascorbic acid]
